Measured values as given in publication PMC8064871 (International Journal of Biological Macromolecules, 2021).
Structures can show the parent of a compound that is named as a salt.

Legend:
SARS-CoV-2 3CL^pro [1] = target: T1, SARS-CoV-2 3CL^pro (Severe acute respiratory syndrome coronavirus 2, UniProt P0DTD1); experiment: Intact protein molecular weight analysis by mass spectrometry; format: binding; conditions: 8.4 μM protease, 90 μM compound, 30 min at 37 °C
SARS-CoV-2 3CL^pro [2] = target: T1, SARS-CoV-2 3CL^pro; conditions: incubation 5-40 min at 37 °C; kobs = (k inact·[I])/(K I + [I])
SARS-CoV-2 3CL^pro [3] = target: T1, SARS-CoV-2 3CL^pro; experiment: Enzymatic inhibition assay of SARS-CoV-2 3CLpro by FRET; format: biochemical; conditions: for inhibitory activity against SARS-CoV-2 3CL^pro (in words): concentrations 0, 1, 10, 100 μM
SARS-CoV-2 3CL^pro [4] = target: T1, SARS-CoV-2 3CL^pro; experiment: biochemical; conditions: IC50 against SARS-CoV-2 3CL^pro, incubation 3 min

## CC1=CC(=O)c2ccccc2C1=O [Entry 1, 2-Methyl-1,4-naphthoquinone (vitamin K3), reference compound]
SARS-CoV-2 3CL^pro [1]
  proteins bound with one compound: 55%
  proteins bound with two compounds: about 15%
  proteins covalently bound (total): about 70%
SARS-CoV-2 3CL^pro [2]
  K I (inhibition constant): 112200 nM

## O=C1C=CC(=O)c2ccccc21 [Entry 2, 1,4-Naphthoquinone]
SARS-CoV-2 3CL^pro [3]
  IC50: 690 ± 130 nM

## O=C1C=C(Cl)C(=O)c2ccccc21 [Entry 3, 2-Chloro-1,4-naphthoquinone]
SARS-CoV-2 3CL^pro [3]
  IC50: 1920 ± 490 nM

## O=C1C=C(O)C(=O)c2ccccc21 [Entry 4, 2-Hydroxy-1,4-naphthoquinone]
SARS-CoV-2 3CL^pro [3]
  IC50: > 100000 nM
  inhibitory activity against SARS-CoV-2 3CL^pro (in words): almost lose their inhibitory activities

## NC1=C(Cl)C(=O)c2ccccc2C1=O [Entry 5, 2-Amino-3-chloro-1,4-naphthoquinone]
SARS-CoV-2 3CL^pro [3]
  IC50: > 100000 nM
  inhibitory activity against SARS-CoV-2 3CL^pro (in words): almost lose their inhibitory activities

## O=C1C=CC(=O)c2c(O)cccc21 [Entry 6, 5-Hydroxy-1,4-naphthoquinone]
SARS-CoV-2 3CL^pro [3]
  IC50: 4110 ± 240 nM

## O=C1C=CC(=O)c2c(O)ccc(O)c21 [Entry 7, 5,8-Dihydroxy-1,4-naphthoquinone]
SARS-CoV-2 3CL^pro [3]
  IC50: 490 ± 110 nM
SARS-CoV-2 3CL^pro [3]; ratio of IC50 values against SARS-CoV-2 3CL^pro
  times higher inhibitory activity than Vitamin K3: 9.8 times
SARS-CoV-2 3CL^pro [1]
  proteins bound with one compound: 80%
  proteins bound with two compounds: about 10%
  proteins covalently bound (total): about 90%
SARS-CoV-2 3CL^pro [2]
  K I (inhibition constant): 3050 nM
SARS-CoV-2 3CL^pro [4]
  IC50: 790 nM

## CC1=CC(=O)c2c(O)cccc2C1=O [Entry 8, 2-Methyl-5-hydroxy-1,4-naphthoquinone]
SARS-CoV-2 3CL^pro [3]
  IC50: 1320 ± 330 nM

## O=NN(CCCl)C(=O)NC1CCCCC1 [Lomustine, reference compound]
SARS-CoV-2 3CL^pro [3]
  IC50: 5860 nM

## N=C(N)c1ccc2cc(OC(=O)c3ccc(N=C(N)N)cc3)ccc2c1 [Nafamostat Mesylate, reference compound]
SARS-CoV-2 3CL^pro [3]; read-out: residual activity of the protease
  remaining activity at 100 µM: ~60%

## CC1=C(C/C=C(\C)CCC[C@H](C)CCC[C@H](C)CCCC(C)C)C(=O)c2ccccc2C1=O [Vitamin K1, reference compound]
SARS-CoV-2 3CL^pro [3]
  inhibitory activity against SARS-CoV-2 3CL^pro (in words): no inhibition at the high and middle concentration

## CC(=O)Oc1cc(C)c(OC(C)=O)c2ccccc12 [Vitamin K4, reference compound]
SARS-CoV-2 3CL^pro [3]
  inhibitory activity against SARS-CoV-2 3CL^pro (in words): lost its inhibitory activity

## COc1cc(C(=O)NS(=O)(=O)c2ccccc2C)ccc1Cc1cn(C)c2ccc(NC(=O)OC3CCCC3)cc12 [Zafirlukast, reference compound]
SARS-CoV-2 3CL^pro [3]
  IC50: 46700 nM
